Assay results reported in patent US20250170127A1, “RE-SENSITIZING MULTIDRUG-RESISTANT (MDR) GRAM-NEGATIVE BACTERIA TO COLISTIN USING IONOPHORES” (The Regents of the University of Colorado, a body corporate, priority 2022, published 2025).
In brackets after ≈: the same amount, converted by molar mass. Where two headings read alike, the source gives them in different places.

What was measured:
E. coli AR-0493 [1] = experiment: Minimum re-sensitizing concentration (MRC) in the presence of colistin; assay type: cell-based; details: in the presence of 2 μg/mL colistin, E. coli AR-0493
Description: These 10 compounds were tested for their MICs and minimum re-sensitizing concentrations (MRCs) in the presence colistin at 2 μg/mL in E. coli AR-0493.
The present inventors further conducted MRC screens of selected compounds from groups 2-5 in AR-0493. Compound were tested against AR-0493 with compound X+2 μg/mL Colistin.
All compounds were tested for their respective minimum resensitizing concentrations (MRCs) for colistin against E. coli. AR0493, a MDR strain from CDC and FDA Antibiotic Resistance Bank. […] For the symmetrical bisanilino series, 7a-p, electron-donating alkyl and alkoxy groups (entries 7a-g, Table 5) at various positions of the phenyl rings were investigated. […] Three asymmetric bisanilino analogs (7q-s, Table 5) were synthesized based on the SARs of the monoanilino analogs 8a-p (vide infra).
(§1) General Methods. MDR strains E. coli AR-0493, AR-0346, and AR-0538, Salmonella Enteritidis AR-0496, Salmonella Typhimurium AR-0635, K. pneumoniae AR-0497, A. baumannii AR-0300 and AR-0310 were all obtained from the CDC & FDA Antibiotic Resistance Isolate Bank. E. coli K-12 was a gift from the Copley lab (Department of MCD Biology, University of Colorado Boulder). HeLa cells were purchased from the ATCC. All bacterial strains were grown on trypticase soy agar supplemented with 5% sheep blood (BAP). Bacteria were then cultured in Luria-Bertani (LB) medium at 35° C. until they achieve the log phase before screening or antimicrobial testing using CAMHB media. MIC, MRC, and checkerboard analyses and mammalian growth inhibition analyses in Hela cells were performed as described previously. More details are given in Supporting information.

E. coli AR-0349 = experiment: MICs of a panel of 9 antibiotics with and without compound 3; assay type: cell-based; details: for INT (S-R interpretation): CLSI 2021, M100, Ed 31; for MIC: Escherichia coli, AR0349, antibiotic alone, multidrug-resistant E. coli, read-out: MIC; for MIC (+3): in the presence of 1 μg/mL of compound 3
E. coli AR-0493 [2] = experiment: MIC, CLSI broth microdilution, substance alone; assay type: cell-based
Description: A MDR E. coli strain AR-0493 (a.k.a., ATCC BAA-3170) was obtained from the CDC and FDA Antibiotic Resistance Bank and used for the initial screen. […] Considering the difficulties on the discovery of novel antimicrobial reagents against Gram-negative bacteria, we chose to screen the fragment-based library of 3,200 compounds from TimTec (Tampa, FL). […] The screen used a modified broth microdilution assay.
These 10 compounds were tested for their MICs and minimum re-sensitizing concentrations (MRCs) in the presence colistin at 2 μg/mL in E. coli AR-0493. […] To evaluate their toxicity in mammalian cells, the present inventors treated human epithelial adenocarcinoma HeLa cells with each compound at a wide range of concentrations. […]
as §1

HeLa cells = experiment: in vitro; assay type: cell-based, human
Description: These 10 compounds were tested for their MICs and minimum re-sensitizing concentrations (MRCs) in the presence colistin at 2 μg/mL in E. coli AR-0493. […] To evaluate their toxicity in mammalian cells, the present inventors treated human epithelial adenocarcinoma HeLa cells with each compound at a wide range of concentrations.
To evaluate the mammalian toxicity of these analogs, Applicants tested them in cell viability assay using human cervical adenocarcinoma HeLa cells. Their respective half maximal growth inhibition concentration (GI50) was calculated using KaleidaGraph. The selectivity index (SI) for each compound was also calculated as the ratio of their GI50 and MRC. […] Therefore, Applicants selected two bisanilino analogs, 7l and 7m, that bear chlorines at the meta- and para-positions, respectively, of the phenyl groups for further characterization studies. […]. […] Their mammalian toxicities were also evaluated, and SIs calculated. […] Applicants we next explored the scope of analogs 71 and 7m their colistin-potentiating activity in 8 different MDR Gram negative bacteria with diverse genetic backgrounds and resistance mechanisms (Table 7). All strains were obtained from CDC and FDA Antibiotic Resistance Bank. For example, E. coli AR-0493 and K. pneumoniae AR-0497 carry the plasmid that contains the most prevalent mcr-1 gene. E. coli AR-0538, Salmonella Typhimurium AR-0539 and AR-0635 contain the mcr-2, 3, and 4 genes, respectively. These genes encode the phosphoethanolamine transferase, which was originated form the chromosome of A. baumannii, such as AR-0310. […]. A. baumannii AR-0310 appears more sensitive to these two compounds and the MICs of colistin was reduced to 0.25 μg/mL.
as §1

SMILES	MRC (minimum re-sensitizing concentration) (E. coli AR-0493 [1])	MIC (E. coli AR-0493 [2])	also measured
COc1ccccc1Nc1nc2nonc2nc1Nc1cccc(OC(F)(F)F)c1 [Compound 7s]	>64 µg/mL	–	–
COc1cccc(Nc2nc3nonc3nc2Nc2cccc(OC)c2)c1 [Compound 7f]	2 µg/mL	–	–
COc1ccc(Nc2nc3nonc3nc2O)cc1 [Compound 8g]	>64 µg/mL	–	–
FC(F)(F)Oc1ccccc1Nc1nc2nonc2nc1Nc1ccccc1OC(F)(F)F [Compound 7n]	>64 µg/mL	–	–
C[C@@H](O)[C@H]1C(=O)N2C(C(=O)O)=C(S[C@@H]3CN[C@H](C(=O)N(C)C)C3)[C@H](C)[C@H]12 [Meropenem]	–	–	INT (S-R interpretation) (E. coli AR-0349): S; MIC (E. coli AR-0349): 0.25 µg/mL (≈ 0.652 µM); MIC (+3) (E. coli AR-0349): 0.25 µg/mL
Oc1nc2nonc2nc1Nc1cccc(F)c1 [Compound 8i]	64 µg/mL	–	–
COc1cccc(Nc2nc3nonc3nc2O)c1 [Compound 8f]	16 µg/mL	–	–
Cc1ccc(Nc2nc3nonc3nc2Nc2ccc(C)cc2)cc1 [Compound 7d]	0.5 µg/mL	>64 µg/mL	GI50 (HeLa cells): 1.1 µg/mL
Cc1cccc(Nc2nc3nonc3nc2O)c1 [Compound 4]	did not show either antimicrobial or RMA activity	did not show either antimicrobial or RMA activity	–
FC(F)(F)Oc1cccc(Nc2nc3nonc3nc2Nc2ccccc2)c1 [Compound 7q]	1 µg/mL	–	–
Cc1cccc(Nc2nc3nonc3nc2Cl)c1 [ST024336, reference compound]	2 µg/mL	–	MRC (minimum re-sensitizing concentration) (E. coli AR-0493 [1]; listed as 1): > 64 µg/mL; GI50 (HeLa cells; HeLa cells, 24 hours): 10 µg/mL
Oc1nc2nonc2nc1Nc1ccccc1F [Compound 8h]	64 µg/mL	–	–
Cc1cccc(Nc2nc3nonc3nc2Nc2cccc(C)c2)c1 [Compound 7c]	0.5 µg/mL	>64 µg/mL	GI50 (HeLa cells): 1.5 µg/mL
Cc1ccccc1Nc1nc2nonc2nc1O [Compound 8b]	64 µg/mL	–	–
Fc1ccc(Nc2nc3nonc3nc2Nc2ccc(F)cc2)cc1 [Compound 7j]	0.5 µg/mL	>64 µg/mL	GI50 (HeLa cells): 9.4 µg/mL
Oc1nc2nonc2nc1Nc1ccccc1 [Compound 8a]	>64 µg/mL	–	–
CN(C)[C@@H]1C(O)=C(C(N)=O)C(=O)[C@@]2(O)C(O)=C3C(=O)c4c(O)cccc4[C@@](C)(O)[C@H]3C[C@@H]12 [Tetracycline]	–	–	INT (S-R interpretation) (E. coli AR-0349): R; MIC (E. coli AR-0349): > 64 µg/mL; MIC (+3) (E. coli AR-0349): >64 µg/mL
Oc1nc2nonc2nc1Nc1cccc(OC(F)(F)F)c1 [Compound 8o]	4 µg/mL	>64 µg/mL	GI50 (HeLa cells): 24 µg/mL
COc1ccccc1Nc1nc2nonc2nc1O [Compound 8e]	4 µg/mL	>64 µg/mL	–
CC(C)(O/N=C(\C(=O)N[C@@H]1C(=O)N2C(C(=O)[O-])=C(C[n+]3ccccc3)CS[C@H]12)c1csc(N)n1)C(=O)O [Ceftazidime]	–	–	INT (S-R interpretation) (E. coli AR-0349): R; MIC (E. coli AR-0349): > 64 µg/mL; MIC (+3) (E. coli AR-0349): >64 µg/mL
